The results in this text go back to US10189794B2, “Heteroaryl compounds and uses thereof” (Celgene CAR LLC, priority 2013, dated 2019).

SMILES strings stand for the structures. Entries after “also recorded” stand apart in the source; their conditions may differ.

Assay [1] concerns the target T1, pFGFR4 in MDA-MB-453 cells (Homo sapiens (Human), UniProt P22455, Y367C). Description: FGFR4 signaling (phospho-FGFR4) in MDA-MB-453 cells. It counts as cell-based. The settings on record: Method A immunoblotting (Western blotting), 1 hr treatment. For orientation: Immunoblotting shows a protein as a band on a membrane.
Method: Huh7 cells were grown in DMEM (Invitrogen, Carlsbad, Calif.) supplemented with 10% FBS (Invitrogen) and 1% Penicillin-Streptomycin (P/S, Lonza, Walkersville, Md.).
For the MSD and ELISA assays, total FGFR4 antibodies were obtained from R&D Systems (Minneapolis, Minn.) and used at 1:500. For the immunoblotting (Western blotting) assay, total FGFR4 antibody was obtained from Santa Cruz (Santa Cruz, Calif.) and used at 1:1000. Phospho-FGFR antibodies were obtained from Cell Signaling (Danvers, Mass.) or R&D Systems and used at 1:1000. The phopho-FGFR antibody from Cell Signaling was used for immunoblotting, whereas the phopho-FGFR antibody from R&D was used for MSD and ELISA assays. Secondary antibodies were used at 1:10,000. The goat anti-mouse IgG IRDye 800CW antibody was obtained from LiCor Biosciences (Lincoln, Nebr.) and the goat anti-rabbit IgG Alexa Fluor 680 was obtained from Invitrogen. The anti-rabbit Sulfo-tag and anti-streptavidin Sulfo-tag antibodies was obtained from Meso Scale Discovery (Gaithersburg, Md.), and were used at 1:1000 and 1:5000, respectively.
For MDA-MB-453 cells signaling, cells were grown in 96-well poly-D-lysine plates (BD Bioscience, San Jose, Calif.) to 90% confluence, and were then incubated in low-serum (0.1% FBS) media for 16-18 hr. […] After treatment, the cells were washed with cold PBS (Invitrogen) and were immediately lysed by freeze/thawing 3× in 32 μL of cold Cell Extraction Buffer (Invitrogen) which was supplemented with Complete Protease inhibitors (Roche, Indianapolis, Ind.) and PhosphoSTOP (Roche) phosphatase inhibitors.
Phospho-protein signals were quantitated using Odyssey Infrared Imaging (Li-Cor Biosciences).
To assess phospho-FGFR signaling, the blots were probed with anti-Phospho-FGFR (Y653/Y654) and total anti-FGFR antibodies. The phospho-FGFR signal was normalized to total FGFR expression for each sample. […] The normalized data was fitted using a sigmoidal curve analysis program (Graph Pad Prism version 5) with variable Hill slope to determine the EC50 values.
After treatment, the cells were washed with cold PBS (Invitrogen), and were immediately lysed by freeze/thawing 3× in 32 μL of cold Cell Extraction Buffer (Invitrogen), which was supplemented with Complete Protease inhibitors (Roche) and PhosphoSTOP (Roche) phosphatase inhibitors.
MSD plates (Meso Scale Discovery) were coated with total FGFR-4 antibodies overnight at 4° C. A lysate (25 μL) was added to the MSD plate overnight at 4° C. The MSD signals were obtained by incubating with a phospho-FGFR antibody (R&D Systems) and an anti-rabbit sulfo-tag antibody (Meso Scale), for 2 hr at room temperature. […] The data was fitted using a sigmoidal curve analysis program (Graph Pad Prism version 5) with variable Hill slope to determine the EC50 values.
MDA-MB-453 cells were grown in 96-well poly-D-lysine plates (BD Bioscience, San Jose, Calif.) to 90% confluence. The cells were then incubated in low-serum (0.1% FBS) media for 16-18 hr. […] After treatment, the MDA-MB-453 cells were washed with cold PBS (Invitrogen) and were immediately lysed by freeze/thawing 3× in 32 μL of cold Cell Extraction Buffer (Invitrogen), which was supplemented with Complete Protease inhibitors (Roche) and PhosphoSTOP (Roche) phosphatase inhibitors.
Nunc-immuno plates (96-well; Sigma, St. Louis, Mo.) were coated with total FGFR-4 antibodies overnight at 4° C. A lysate (25 μL) was added to the plate for 2 hr at room temperature. A phospho-FGFR detection antibody (100 μL) was added per well for 2 hr at room temperature, followed by a goat anti-rabbit HRP antibody (100 μL) for 45 min. […] The data was fitted using a sigmoidal curve analysis program (Graph Pad Prism version 5) with variable Hill slope to determine the EC50 values.
The test system of the next assay is MDA-MB-453 cells. Description: Cell proliferation, MDA-MB-453 (CellTiter Glo). The settings on record: Homo sapiens; MDA-MB-453; 96 hr; read-out: Cell Proliferation GI50 (nM) MDA. Format: cell-based. Background: In ATP-based viability assays light output follows the ATP content of the culture.
Assay [2] has as its target FGFR4 in MDA-MB-453 cells (Homo sapiens (Human), UniProt P22455, Y367C). Description: Target occupancy assay with biotinylated covalent probe I-127. As to conditions: MDA-MB-453 lysate; 2 μM biotinylated probe I-127. It counts as cell-based. The method, then:
In order to assess free FGFR4 protein a biotinylated covalent probe was utilized. […] The reaction was incubated for 2 hr at room temperature. The samples and probe mixture were transferred to a FGFR4-coated MSD plate for 2 hr at room temperature. MSD signals were obtained with an anti-streptavidin Sulfo-tag (Meso Scale) antibody for 1 hr at room temperature.
If a compound completely (100%) covalently modies FGFR4 no free FGFR4 should be available for covalent modification by the biotinylated probe and subsequent binding to streptavidin and detection.

Assay [3] addresses T1, pFGFR4 in MDA-MB-453 cells. Description: Washout experiment (duration of pFGFR4 inhibition). It counts as cell-based. The settings on record: 1000-2000 nM for 1 hr, washed, up to 24 hr. On the procedure:
The cells were allowed to settle down for 4 hrs and were then maintained in low-serum (0.1% FBS) media overnight.
The following morning, the media was removed and the cells were treated with 1000-2000 nM of test compound in low-serum media for 1 hr. The cells were washed free of test compound (3×) with PBS (Invitrogen). One set of cells was immediately lysed as indicated above as the 0 hr time point. The remaining cells were incubated with the appropriate complete growth media (10-20% FBS) for 1, 2, 4, 8, 16 (in certain circumstances) and 24 hr. DMSO (0.5%) controls were collected at all time points.

In the next assay the target is FGFR4-WT (Homo sapiens (Human), UniProt P22455). Description: Omnia assay for potency assessment against FGFR4 enzyme. Format: biochemical. As to conditions: method a: Invitrogen FGFR4-WT 10 nM, ATP 300 uM, Y10-Sox 10 uM; read-out: FGFR4 IC50. The method, then: A 10× stock solution of FGFR4-WT (PR4380C), (from Invitrogen, Carlsbad, Calif.) corresponding to method a in Table 7, was prepared as described below. Alternatively, a 10× stock solution of FGFR4-WT (F01-11G), (SignalChem, Richmond, BC) corresponding to method b in Table 7, was prepared as described below. A solution of 1.4×ATP (AS001A) and 5×Tyr-Sox conjugated peptide substrate (KNZ3101) were prepared in IX kinase reaction buffer consisting of 20 mM Tris, pH 7.5, 5 mM MgCl2, 1 mM EGTA, 5 mM β-glycerophosphate, 5% glycerol (10× stock, KB002A) and 0.2 mM DTT (DS001A). […] The serially diluted compounds were prepared on a Tecan EVO100. A second addition of 10 μl of Tyr-Sox FGFR4 substrate was added to each well and the kinase reactions were started with the addition of 35 μL of 1.4×ATP. The reactions were monitored every 71 seconds for 240 minutes at λex360/λem485 in a Synergy plate reader from BioTek (Winooski, Vt.).

The target in a further assay is pFGFR4 in Huh7 cells (Homo sapiens (Human), UniProt P22455). Description: FGFR4 signaling (phospho-FGFR4) in Huh7 cells, MSD. As to conditions: Meso Scale assay (MSD), 1 hr treatment, read-out: Signaling EC50 (nM) pFGFR4 (Huh). It counts as cell-based.
The next assay relates to Huh7 cells. Description: Cell proliferation, Huh7 (CellTiter Glo). It counts as cell-based. The settings on record: Homo sapiens, Huh-7; Huh7; 120 hr; read-out: Cell Proliferation GI50 (nM) HUH. On the procedure:
The growth inhibition (GI50) values were determined by Graph Pad Prism.

T1 sequence (P22455 22-802 Y367C): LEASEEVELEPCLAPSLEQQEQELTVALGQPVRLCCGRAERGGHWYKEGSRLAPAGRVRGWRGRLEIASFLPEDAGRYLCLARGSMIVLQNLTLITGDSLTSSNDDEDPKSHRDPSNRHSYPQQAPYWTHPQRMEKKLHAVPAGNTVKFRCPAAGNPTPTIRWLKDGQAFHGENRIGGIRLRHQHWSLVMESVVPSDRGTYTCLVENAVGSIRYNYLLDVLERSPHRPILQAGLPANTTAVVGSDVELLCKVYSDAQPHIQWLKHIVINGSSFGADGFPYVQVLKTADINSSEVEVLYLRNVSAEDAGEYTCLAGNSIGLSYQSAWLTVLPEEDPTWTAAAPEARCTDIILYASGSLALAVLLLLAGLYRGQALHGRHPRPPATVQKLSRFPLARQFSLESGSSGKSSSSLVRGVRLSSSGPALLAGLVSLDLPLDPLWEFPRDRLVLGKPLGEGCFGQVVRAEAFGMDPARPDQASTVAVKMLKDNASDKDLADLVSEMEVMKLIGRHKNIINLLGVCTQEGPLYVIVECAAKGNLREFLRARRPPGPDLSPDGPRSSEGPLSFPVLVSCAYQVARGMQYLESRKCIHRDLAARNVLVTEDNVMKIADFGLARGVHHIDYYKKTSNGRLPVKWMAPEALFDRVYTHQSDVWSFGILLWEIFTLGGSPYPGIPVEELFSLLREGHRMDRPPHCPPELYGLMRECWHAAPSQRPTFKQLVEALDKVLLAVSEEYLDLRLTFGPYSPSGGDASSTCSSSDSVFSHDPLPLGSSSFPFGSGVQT
Chain of FGFR4-WT (P22455 22-802): as the sequence (P22455 22-802 Y367C) above, with C346Y counted along it
Chain of FGFR4 in MDA-MB-453 cells (P22455 22-802 Y367C): as the sequence (P22455 22-802 Y367C) above
Chain of pFGFR4 in Huh7 cells (P22455 22-802): as the sequence (P22455 22-802 Y367C) above, with C346Y counted along it

Broadly, the EC50 is the concentration that produces a half-maximal response. On to `CCC(=O)Nc1cccc(CN2C(=O)N(c3c(Cl)c(OC)cc(OC)c3Cl)Cc3cnc(Nc4ccccc4NC(=O)CC)nc32)c1` [I-234], for which the EC50 in assay [1] is 101 to 500 nM; in assay [2] it was over 1000 nM. In addition, the GI50 with MDA-MB-453 cells is over 1000 nM. For the same molecule, the “duration of action against pFGFR4 signalling after washout” value (“duration of action” below) in assay [3] was “does not show prolonged duration of action; also recorded: does not have PDA”.

What is called IC50 is the concentration that inhibits the measured activity by half. Turning to `C=CC(=O)Nc1ccccc1Nc1ncc2c(n1)N(Cc1cccc(NC(=O)CC)c1)C(=O)N(c1c(Cl)c(OC)cc(OC)c1Cl)C2` [I-1], the half-inhibitory concentration (IC50) on FGFR4-WT was under 100 nM. The 50% effective concentration (EC50) (at pFGFR4 in Huh7 cells; in assay [2]) was under 100 nM in each case. Moreover, the GI50 is under 100 nM in the assay on MDA-MB-453 cells and 101 to 500 nM in the assay on Huh7 cells. Besides, in assay [3], the “duration of action” value is recorded as “prolonged duration of action; also recorded: has PDA”.

Regarding `C=CC(=O)NC1CCCCC1Nc1ncc2c(n1)N(Cc1cscn1)C(=O)N(c1c(Cl)c(OC)cc(OC)c1Cl)C2` (racemic) [I-69], the IC50 at FGFR4-WT is under 100 nM. In addition, the GI50 in the assay on MDA-MB-453 cells is 101 to 500 nM; with Huh7 cells, 501 to 999 nM. The “duration of action” value in assay [3] is given as “prolonged inhibition of autophosphorylation of FGFR4; also recorded: prolonged duration of action”.
